Patent US8889123B2, “Compositions and soft tissue replacement methods” (Allergan, Inc., priority 2010, dated 2014)

Legend:
VEGF [1] = assay: Incisional wound model, VEGF expression in skin wound tissue by Western blot; type: in vivo, Sprague-Dawley rats; settings: topical 0.004% twice daily vs vehicle
From the text: (§1) To test whether the compounds of Formula I promote the formation of blood vessels, and incisional wound model was employed over a 14-day period. Sprague-Dawley rats (180-200 g) were anesthetized, the backs shaved, and a 2-cm long incision was made on the back skin of rats under sterile conditions, reaching the deep fascia. The wound was immediately closed with 4-0 sutures. The animals were topically treated with vehicle or Compound 1 at 0.004% twice daily. The vehicle contains ethanol 30%, propylene glycol 12%, dipropylene glycol 5%, benzyl alcohol 5%, glycerol 3% and normal saline 45%. Biopsy samples of skin wound tissues were analyzed with Western blots day-7 and day-14 post-surgery. Tissue samples about 1 mm thick were taken from both sides of the wound. Protein was extracted, and FGF-2/VEGF expression was monitored, with Western blot analysis.

FGF-2 [2] = assay: Incisional wound model, FGF-2 expression in skin wound tissue by Western blot; type: in vivo, Sprague-Dawley rats; settings: topical 0.004% twice daily vs vehicle
From the text: as §1

VEGF [3] = assay: Oral ulcer wound model, VEGF up-regulation; type: in vivo
FGF-2 [4] = assay: Oral ulcer wound model, FGF-2 up-regulation; type: in vivo

CC1(C)C(=O)[C@H](C/C=C\CCCC(=O)O)[C@@H](/C=C/[C@H](O)CCc2sc3ccccc3c2Cl)[C@@H]1O [Compound 1]
VEGF expression increase, normalized with β-actin (VEGF [1]; day-7, P=0.039): 25%
increase in VEGF synthesis by day-14 (VEGF [1]; day-14): returned to the baseline
enhanced expression of FGF-2, normalized with β-actin (FGF-2 [2]; day-7, P=0.004): 60%
increase in FGF-2 synthesis over the whole study period (FGF-2 [2]; whole study period (day-14), P=0.04): persisted for the whole study period
up-regulation of VEGF (VEGF [3]): up-regulation
up-regulation of FGF-2 (FGF-2 [4]): up-regulation
